Test results: US20230063321A1, “Methods for Treating Inflammatory Bowel Diseases with alpha4beta7 Integrin Antagonists” (Protagonist Therapeutics, Inc., priority 2020, published 2023)
Several values for one entry are separate records, joined by “and”; a condition that tells them apart may be missing. Identical values can stand only once. Numbered stars: 1 amine (or outer) side, 2 acyl side, 3 side chain; on linkers, the order of the positions; unused ones are H or OH. Bridge positions count the residues as written; N and C are the ends. Square brackets hold non-standard residues; d marks the D form. Peptide text beside a SMILES is read from it. I, II: the chains in the order shown. ξ: configuration not given here. Phe(4-tBu) = CC(C)(C)c1ccc(C[C@H](N)C(=O)O)cc1; Diglycolyl = O=C(COCC(=O)[*:2])[*:1]; NMeR = CN[C@@H](CCCNC(=N)N)C(=O)O; β3hE = N[C@@H](CCC(=O)O)CC(=O)O; Thr(3ξ) = CC(O)[C@H](N)C(=O)O; X1 = O=C(c1ccccc1C[*:2])[*:1]; Pen = CC(C)(S)[C@H](N)C(=O)O

Tests used:
[1] = Systemic absorption in animal studies; assay type: in vivo; settings: oral
[2] = Study 1 pharmacokinetics in healthy male volunteers (liquid solution); settings: for dose excreted at 24 h: 24-hour fecal recovery, intact, multiple dose; for Tmax: Tmax (h)
Method: Dose escalation proceeded from 100 mg, 300 mg, 1000 mg, 1400 mg. Subjects in the 300 mg dose cohort received treatment in the fasted state on one occasion and following a high fat meal on a second occasion in a crossover fashion. The high fat meal consisted of two eggs fried in butter, two strips of bacon, two slices of toast with butter, four ounces of hash brown potatoes and 240 ml of whole milk. During Part 1, subjects refrained from food and drink except water for 10 hours before and for four hours after dosing with the exception of subjects in the 300 mg dose cohort during the fed treatment.
Part 2 was a randomized, placebo-controlled, double-blind multiple ascending dose study in 50 male subjects divided equally into 5 cohorts. […] Doses evaluated in Part 2 included 100 mg, 300 mg and 1000 mg. During Part 2, two cohorts of subjects (100 mg and 300 mg) received food approximately 30 minutes prior to each dose and another two cohorts of subjects (300 mg and 100 mg) refrained from food for 10 hours before and for 1 hour after dosing.
Study 1: The single and multiple ascending dose phase of the study consisted of sequential dose escalations in 10 subject per dose cohort. […] Dose solutions were formulated in 50 mM phosphate buffer pH 7.4 and were prepared weekly by a qualified pharmacist.
Blood samples for pharmacokinetics were collected predose and for 48 hours postdose following single doses. In the multiple ascending dose phase, blood samples were obtained on Days 1-3 and 14-16; on Days 8 samples were obtained predose, 4, and 12 hours. On Day 10 of the MAD, subjects were required to collect all urine for the 0-6, 6-12, 12-18, and 18-24 hour intervals postdose and on Day 11 subjects were required to collect fecal samples.
The drug and internal standard were extracted from the matrix by a protein precipitation procedure. The limit of quantitation was 0.2 ng/mL, 20 ng/mL, and 100 ng/mL in plasma, urine, and feces, respectively. […] Coefficient of determinations for the calibration curves were at least 0.99 for all matrices. The interassay accuracy (% bias) ranged from −2.2% to 1.0% for plasma, −3.8% to 9.0% for urine and −5.0 to 5.2% for feces. Interassay precision (% CV) ranged from 3.7% to 7.7% for plasma, 2.8% to 7.0% for urine, and 1.2% to 5.2% for feces.
Pharmacokinetic parameters were estimated by noncompartmental methods using Phoenix WinNonlin (Certara, Princeton N.J.). Peak plasma concentration (Cmax) and time to peak plasma concentration (Tmax) were observed values. The elimination rate was estimated from the slope of the least-squares regression on the terminal log-linear phase. Area under the plasma concentration-time curve from time zero to the last quantifiable concentration (AUCt) was estimated by a linear trapezoidal method and was extrapolated to infinity (AUC∞) by dividing the last quantifiable concentration b the elimination rate.

Compound: CC(C)C[C@@H]1NC(=O)[C@H](C(C)O)NC(=O)[C@H](CC(=O)O)NC(=O)[C@H](CO)NC(=O)[C@H](CCCNC(=N)N)N(C)C(=O)c2ccccc2CSC(C)(C)[C@@H](C(=O)N[C@@H](Cc2ccc(C(C)(C)C)cc2)C(=O)N[C@@H](CCC(=O)O)CC(=O)N[C@H](CCCCNC(=O)COCC(=O)NCCCC[C@@H](NC(=O)C[C@H](CCC(=O)O)NC(=O)[C@H](Cc2ccc(C(C)(C)C)cc2)NC(=O)[C@H]2NC(=O)[C@H](CC(C)C)NC(=O)[C@H](C(C)O)NC(=O)[C@H](CC(=O)O)NC(=O)[C@H](CO)NC(=O)[C@H](CCCNC(=N)N)N(C)C(=O)c3ccccc3CSC2(C)C)C(=O)O)C(=O)O)NC1=O (stereo partly drawn) [Compound A, ((2-Benzyl)-(N-Me-R)-Ser-Asp-Thr-Leu-Pen-(Phe(4-tBlu))-(β-homo-Glu)-(D-Lys)-OH)2 (SEQ ID NO: 5) and linker-DIG diglycolic acid] (I: [NMeR]SD[Thr(3ξ)]L[Pen][Phe(4-tBu)][β3hE][dK]-OH / II: [NMeR]SD[Thr(3ξ)]L[Pen][Phe(4-tBu)][β3hE][dK]-OH; linker I:9-II:9 via Diglycolyl; linker I:N-I:6, II:N-II:6 via X1)
- Complete Mayo Score, Adapted Mayo Score, and/or Partial Mayo Score vs placebo (450 mg BID or 150 mg BID): statistically significant improvement
- safety of treatment (in vivo): safe
- systemic absorption [1]: < 1%
- accumulation with once daily dosing (Cmax and AUCt, Day 14 vs Day 1) ([2]; 300 mg and 1000 mg): ≤ 30%
- Fluctuation (%) ([2]; 450 mg Twice Daily, Day 5, Mean ± SD): 143% and 143 ± 42%
- Fluctuation (%) ([2]; 450 mg Twice Daily, Day 5, Mean ± SD, listed as COMPOUND A): 143%
- Fluctuation (%) ([2]; 900 mg Once Daily, Day 5, Mean ± SD): 245 ± 81%
- Fluctuation (%) ([2]; 900 mg Once Daily, Day 5, Mean ± SD, listed as COMPOUND A): 245%
- half-life ([2]; human, plasma, oral, 100 mg, t½ (h), 100 mg Fed once daily, Day 1, N = 1): 3.85 h
- half-life ([2]; human, plasma, oral, 100 mg, t½ (h), 100 mg Fed once daily, Day 14, N = 1): 7.4 h
- half-life ([2]; human, plasma, oral, 300 mg, t½ (h), 300 mg Fed once daily, Day 1, N = 1): 7.96 h
- dose excreted at 24 h ([2]; male, human, faeces, oral, 300 mg, 300 mg fasted): 0.73%
- dose excreted at 24 h ([2]; male, human, faeces, oral, 300 mg, 300 mg fed): 1.78%
- dose excreted ([2]; male, human, faeces, oral, 300 mg, fecal recovery): 1 to 2%
- dose excreted at 24 h ([2]; male, human, faeces, oral, 1000 mg): 16.8%
- Tmax ([2]; male, human, plasma, oral, 100 mg, 100 mg Fed once daily, Day 1, Median (Min, Max)): 4 h
- Tmax ([2]; male, human, plasma, oral, 100 mg, 100 mg Fed once daily, Day 14, Median (Min, Max)): 4 h
- Tmax ([2]; male, human, plasma, oral, 100 mg, single dose 100 mg, Median (Min, Max)): 2 h
- Cmax ([2]; male, human, plasma, oral, 100 mg, mean peak plasma concentration (Cmax), single dose 100 mg): 2.11 ng/mL
- half-life ([2]; male, human, plasma, oral, 100 mg, t½ (h), single dose 100 mg, Mean ± SD, N = 4): 3.05 ± 0.71 h
- Tmax ([2]; male, human, plasma, oral, 300 mg, 300 mg Fasted once daily, Day 1, Median (Min, Max)): 2 h
- Tmax ([2]; male, human, plasma, oral, 300 mg, 300 mg Fasted once daily, Day 14, Median (Min, Max)): 2 h
- Tmax ([2]; male, human, plasma, oral, 300 mg, 300 mg Fed once daily, Day 1, Median (Min, Max)): 4 h
- Tmax ([2]; male, human, plasma, oral, 300 mg, 300 mg Fed once daily, Day 14, Median (Min, Max)): 4 h
- Tmax ([2]; male, human, plasma, oral, 300 mg, single dose 300 mg Fasted, Median (Min, Max)): 3 h
- Tmax ([2]; male, human, plasma, oral, 300 mg, single dose 300 mg High Fat Meal, Median (Min, Max)): 4 h
- half-life ([2]; male, human, plasma, oral, 300 mg, mean elimination half-life, single doses 100 and 300 mg): 3.1 to 4 h
- half-life ([2]; male, human, plasma, oral, 300 mg, t½ (h), 300 mg Fasted once daily, Day 1, Mean ± SD): 5.16 ± 1.92 h
- half-life ([2]; male, human, plasma, oral, 300 mg, t½ (h), 300 mg Fasted once daily, Day 14, Mean ± SD, N = 7): 7.31 ± 3.86 h
- half-life ([2]; male, human, plasma, oral, 300 mg, t½ (h), single dose 300 mg Fasted, Mean ± SD, N = 4): 4.02 ± 1.37 h
- Tmax ([2]; male, human, plasma, oral, 450 mg, 450 mg Twice Daily, Day 1, Median (min, max)): 2 h
- Tmax ([2]; male, human, plasma, oral, 450 mg, 450 mg Twice Daily, Day 5, Median (min, max)): 2 h
- Tmax ([2]; male, human, plasma, oral, 900 mg, 900 mg Once Daily, Day 1, Median (min, max)): 2 h
- Tmax ([2]; male, human, plasma, oral, 900 mg, 900 mg Once Daily, Day 5, Median (min, max)): 2 h
- half-life ([2]; male, human, plasma, oral, 900 mg, t½ (h), 900 mg Once Daily, Day 1, Mean ± SD): 5.27 ± 2.4 h
- half-life ([2]; male, human, plasma, oral, 900 mg, t½ (h), 900 mg Once Daily, Day 5, Mean ± SD): 6.24 ± 2.97 h
- Tmax ([2]; male, human, plasma, oral, 1000 mg, 1000 mg Fasted once daily, Day 1, Median (Min, Max)): 2 h
- Tmax ([2]; male, human, plasma, oral, 1000 mg, 1000 mg Fasted once daily, Day 14, Median (Min, Max)): 2 h
- Tmax ([2]; male, human, plasma, oral, 1000 mg, single dose 1000 mg, Median (Min, Max)): 4 h
- half-life ([2]; male, human, plasma, oral, 1000 mg, t½ (h), 1000 mg Fasted once daily, Day 1, Mean ± SD): 6.6 ± 1.99 h
- half-life ([2]; male, human, plasma, oral, 1000 mg, t½ (h), 1000 mg Fasted once daily, Day 14, Mean ± SD): 7.7 ± 3.69 h
- half-life ([2]; male, human, plasma, oral, 1000 mg, t½ (h), single dose 1000 mg, Mean ± SD, N = 7): 5.26 ± 0.91 h
- Tmax ([2]; male, human, plasma, oral, 1400 mg, single dose 1400 mg, Median (Min, Max)): 4 h
- half-life ([2]; male, human, plasma, oral, 1400 mg, mean elimination half-life, single doses 1000 and 1400 mg): 5.3 to 5.7 h
- half-life ([2]; male, human, plasma, oral, 1400 mg, t½ (h), single dose 1400 mg, Mean ± SD): 5.74 ± 1.35 h
- half-life ([2]; male, human, plasma, oral, mean elimination half-life, multiple doses): 5.2 to 7.7 h
